Reference: US20250375468A1, “NOVEL RAS INHIBITORS” (KHR Biotec GmbH, priority 2022, published 2025)

What was measured:
Assay in all cases: NanoBit assay for RAS activation (RAS-LgBiT / CRAF RBD-SmBiT)
Assay type in all cases: cell-based
HRAS G12V = target: T1, HRAS G12V (Homo sapiens, UniProt P01112, G12V); details: HRAS G12V with CRAF RBD, 2 h incubation with inhibitor, serum free DMEM
T1 construct: K, N and HRAS G12V (full length) was cloned with Xho I and Bgl Il to LgBit; expressed in transfected cells
Protocol: (§1) FIGS. 1a) and 1b): NanoBit assay for RAS activation (KRAS G12V, NRAS G12V, HRAS G12V)
(§2) N-terminal LgBiT and C-terminal SmBIT construct was purchased from Promega and K, N and HRAS G12V (full length) was cloned with Xho I and Bgl Il to LgBit and CRAF Ras binding domain (1-149) was cloned with EcoRI and Bgl Il to SmBit. For transfections, 1 μg or 2 μg of (12 well/6 well) plasmids were transfected into cells with 0.5 mM of PEI reagent in 100 μl or 200 μl PBS. One day after transfection, cells were harvested and seeded into 96 well white plates, half area (Greiner). After an additional day the medium was changed to serum free DMEM and the cells were incubated for 2 h with inhibitors. NanoGlo assay was performed according to the manufacturer's instructions. The luminescence was measured using Tecan infinite (Tecan).

KRAS G12V = target: T2, KRAS G12V (Homo sapiens, UniProt P01116, G12V); details: KRAS G12V with CRAF RBD, 2 h incubation with inhibitor, serum free DMEM
T2 construct: K, N and HRAS G12V (full length) was cloned with Xho I and Bgl Il to LgBit; expressed in transfected cells
Protocol: as §1, §2

NRAS G12V = target: T3, NRAS G12V (Homo sapiens, UniProt P01111, G12V); details: NRAS G12V with CRAF RBD, 2 h incubation with inhibitor, serum free DMEM
T3 construct: K, N and HRAS G12V (full length) was cloned with Xho I and Bgl Il to LgBit; expressed in transfected cells
T3 sequence (P01111 whole entry G12V): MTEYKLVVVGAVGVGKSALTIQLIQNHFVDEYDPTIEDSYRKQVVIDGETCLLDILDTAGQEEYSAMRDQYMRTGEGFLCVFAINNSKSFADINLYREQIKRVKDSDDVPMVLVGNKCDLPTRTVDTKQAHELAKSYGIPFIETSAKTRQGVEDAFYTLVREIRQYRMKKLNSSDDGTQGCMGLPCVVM
Protocol: as §1, §2

CC[PH](CC)(CC)[Au][S][C@@H]1O[C@H](COC(C)=O)[C@@H](OC(C)=O)[C@H](OC(C)=O)[C@H]1OC(C)=O [Auranofin, (2,3,4,6-Tetra-O-acetyl-1-thio-β-D-glucopyranosato)(triethylphosphan)gold]
inhibits: RAS activation (NanoBit luminescence), H-RAS (HRAS G12V) | RAS activation (NanoBit luminescence), K-RAS (KRAS G12V) | RAS activation (NanoBit luminescence), N-RAS (NRAS G12V)
